In PubChem BioAssay AID720611 (Broad Institute, 2013):

Tested on: SNB-19 viability, CellTiter-Glo ATP luminescence, 8-48 h
Assay: SNB-19 glioblastoma cell viability over time, late-stage follow-up, mechanism study for HRAS target identification, CellTiter-Glo ATP luminescence, 8-48 h, dry powder (AID 720611)

SMILES: CC(C)(C)OC(=O)NCCOCCOCCOc1ccc(N(C(=O)CCl)C(C(=O)NCCc2ccccc2)c2cccs2)cc1Cl (centres undefined)
- AC50 (measured here: 8 h treatment): 1.41 µM
- AC50 (measured here: 24 h treatment): 2.5 µM
- AC50 (measured here: 48 h treatment): 1.45 µM

SMILES: COc1ccc(N(C(=O)CCl)C(C(=O)NCCc2ccccc2)c2cccs2)cc1Cl (centres undefined)
- AC50 (measured here: 8 h treatment): 0.978 µM
- AC50 (measured here: 24 h treatment): 1.3 µM
- AC50 (measured here: 48 h treatment): 1.25 µM

SMILES: C#CCCCC(=O)NCCOCCOCCOc1ccc(N(C(=O)CCl)C(C(=O)NCCc2ccccc2)c2cccs2)cc1Cl (centres undefined)
- AC50 (measured here: 8 h treatment): 5.75 µM
- AC50 (measured here: 24 h treatment): 4.27 µM
- AC50 (measured here: 48 h treatment): 3.6 µM
